Measurements reported in patent US20190144368A1, “Compounds and compositions for biofilm prevention” (INHIBIO AS, priority 2016, published 2019).
Where “and” joins values, the source holds several entries; their conditions need not be identical. Equal values may be shown once.

Tests used:
[1] = test system: Gram positive bacteria (three Staphylococcus aureus strains); experiment: Biofilm formation in polystyrene microtiter plates (crystal violet, OD595), Gram positive bacteria; type: cell-based; settings: one day at 37 °C
Protocol: (§1) All experiments were performed by using sterile 96-wells polystyrene microtiter plates (Nunc, Nuncleon, Roskilde, Denmark) under conditions promoting biofilm formation by the different bacterial genera. The Inhibio compound preparations of the invention; 1,3-cyclohexanedione, 1,4-cyclohexanedione, cyclopentanone, 5-ethylcyclohexane-1,3-dione and 5-methyl-1,3 cyclohexanedione 98% were solved directly in Tryptic Soy Broth (TSB) 1+1 or Liquid Microbiology Broth (LB) broth without NaCl (LB^wo/NaCl) to obtain the test concentrations, i.e. from 1 mg/ml to 10 mg/ml.
Three Staphylococcus aureus strains of animal origin were used in this study. All strains were stored at −80° C. in Brain Heart Infusion Broth (BHI) (Difco, BD, Franklin Lakes, N.J., USA) supplemented with 15% glycerine (Merck KGaA, Darmstadt, Germany) and were recovered on blood agar at 37.0±1.0° C. The bacterial cultures were then transferred into TSB and were incubated statically overnight at 37.0±1.0° C. to obtain an overnight working culture. A total of 2 μl of this suspension was transferred to each 96 wells of polystyrene microtiter plates (Nunc, Nuncleon, Roskilde, Denmark) containing 198 μl TSB 1+1 with dissolved Inhibio compounds in the following concentrations: 0 mg/ml, 1 mg/ml and 10 mg/ml for 1,3-cyclohexanedione; 0 mg/ml and 10 mg/ml for 1,4-cyclohexanedione; and 0 mg/ml, 1 mg/ml, 2 mg/ml and 10 mg/ml for 5-ethylcyclohexane-1,3-dione and 5-Methyl-1,3-cyclohexanedione in the total amount of broth. Three parallels of each strain were used and the microtiter plates were incubated statically for one day, at 37±1.0° C. After incubation, OD595 was measured in a microplate photometer (Multiscan EX; Thermo Fisher Scientific Inc, Waltham, Mass., USA) before the plates were gently washed three times with 290 μl tap water. The plates were dried in room temperature before addition of 220 μl 1% crystal violet (Sigma-Aldrich, St. Louis, Mo., USA). After 30 minutes incubation in room temperature, the plates were washed three times with tap water before the addition of 220 μl ethanol:acetone (70:30 w:w) to dissolve the bound dye. The plates were incubated for 10 minutes in room temperature before OD595 was measured after the bound dye was dissolved using ethanol:acetone. For each strain, the result was calculated by subtracting the median OD595 of the three parallels of the control (test broth only) from the median OD595 of the three parallels of sample. Further, the average result of all three Gram positive strains included in the study were calculated. Three independent experiments were performed and the average was evaluated.

[2] = test system: SRB isolate ATCC 29579 Desulfovibrio vulgaris subspecies vulgaris; experiment: Biofilm produced by SRB (sulphate reducing bacteria) on carbon steel coupon in fluids; type: cell-based; settings: 10 mg/ml, 20 °C for 12 days
Protocol: One SRB isolate (the culture collection strain: ATCC 29579 Desulfovibrio vulgaris subspecies vulgaris) was tested. 1,4-cyclohexanedione and cyclopentanone were diluted in the culture medium ATCC 1249 to a concentration of 10 mg/ml (1%) and added to each their 50 ml Falcon centrifugal tube. A third tube, with 10 ml of medium only (ATCC 1249) was included as a control. 50 μl SRB starting culture was added to each of the three tubes together with a carbon steel coupon. Biofilm was formed on the coupon by incubating at 20° C. for 12 days. After incubation, the coupons were washed in 40 ml sterile saline to remove loosely adhered cells. A sample from this fluid was injected into SRB medium and blackening of the medium was visualized, showing that there were still free-floating bacteria present.

[3] = test system: Gram negative bacteria (Salmonella isolates); experiment: Biofilm formation in polystyrene microtiter plates (crystal violet, OD595), Gram negative bacteria; type: cell-based, Salmonella ser. Typhimurium, Salmonella ser. Agona; settings: 10 mg/ml, two days at 20 °C
Protocol: as §1
(§2) One Salmonella ser. Typhimurium (S. Typhimurium), two Salmonella ser. Agona (S. Agona) and two Escherichia coli (E. coli) isolates were used in these studies. The studies performed using 1,3-cyclohexanedione and 1,4-cyclohexanedione were done on Salmonella isolates only. The studies comparing Menthone to 1,3-cyclohexanedione were using two E. coli strains, E. coli 1242 and E. coli 1153, see FIG. 11. The Salmonella isolates were isolated from Norwegian feed factories except one S. Typhimurium strain which was a culture collection strain (ATCC 14028). The E. coli isolates were of animal origin. All strains were stored at −80° C. in BHI supplemented with 15% glycerine and were recovered on blood agar at 37.0±1.0° C. The bacterial cultures were then transferred into LB broth and incubated statically overnight at 37.0±1.0° C. to obtain an overnight working culture. A total of 30 μl of this suspension was transferred to each well in 96 wells polystyrene microtiter plates (Nunc, Nuncleon, Roskilde, Denmark) in triplets. The wells were containing 100 μl LB^wo/NaCl (bacto-tryptone 10 g/l, yeast extract 5 g/l) with 1,3-cyclohexanedione dissolved in concentration 0 mg/ml, 1 mg/ml and 10 mg/ml in the total amount of broth and 1,4-cyclohexanedione and cyclopentanone at 0 mg/ml and 10 mg/ml. The microtiter plates were incubated statically for two days, at 20±1.0° C. After incubation, OD595 was measured before the plates were gently washed one time with 150 μl tap water. The plates were dried in room temperature before addition of 140 μl 1% crystal violet (Sigma-Aldrich). After 30 minutes incubation in room temperature, the plates were washed three times with tap water before addition of 140 μl ethanol:acetone (70:30 w:w) and incubated for another 10 minutes in room temperature. OD595 was measured in a microplate photometer (Multiscan EX) after the bound dye was dissolved using ethanol:acetone. For each strain, the result was calculated by subtracting the median OD595 of the three parallels of the control (test broth only) from the median OD595 of the three parallels of sample. Further, the averages of the Gram negative strains were calculated. Three independent experiments were performed and the average was evaluated.

[4] = test system: E. coli 1242 and E. coli 1153; experiment: Biofilm formation in microtiter plates, comparison of 1,3-cyclohexanedione and menthone; type: cell-based, Escherichia coli; settings: 1 mg/ml, two values, one per strain (E. coli 1242, E. coli 1153)
Protocol: as §1
as §2, with “A total of 30 μl of this suspension was transferred to each well in 96 wells polystyrene microtiter plates (Nunc, Nuncleon, Roskilde, Denmark) in triplets. The wells were containing 100 μl LB^wo/NaCl (bacto-tryptone 10 g/l, yeast extract 5 g/l) with 1,3-cyclohexanedione dissolved in concentration 0 mg/ml, 1 mg/ml and 10 mg/ml in the total amount of broth and 1,4-cyclohexanedione and cyclopentanone at 0 mg/ml and 10 mg/ml. The microtiter plates were incubated statically for two days, at 20±1.0° C.” left out, “The plates were dried in room temperature before addition of 140 μl 1% crystal violet (Sigma-Aldrich). After 30 minutes incubation in room temperature, the plates were washed three times with tap water before addition of 140 μl ethanol:acetone (70:30 w:w) and incubated for another 10 minutes in room temperature.” left out

Row | Compound | decrease in biofilm formation, percentage of the control ([1]; 10 mg/ml) [%] | biofilm visualized on carbon steel coupon [2] | decrease in biofilm formation, percentage of the control [3] [%] | decrease in biofilm formation, percentage of the control ([1]; 1 mg/ml) [%] | decrease in biofilm formation, percentage of the control ([1]; 2 mg/ml) [%] | decrease in biofilm formation [4]
1 | O=C1CCC(=O)CC1 [1,4-cyclohexanedione] | 53 | only scarce amount of biofilm could be visualized | 91 | – | – | –
2 | CCC1CC(=O)CC(=O)C1 [5-ethylcyclohexane-1,3-dione] | 98 | – | – | 55 | 74 | –
3 | CC1CC(=O)CC(=O)C1 [5-methyl-1,3-cyclohexanedione] | 98 | – | – | 32 | 85 | –
4 | O=C1CCCC1 [cyclopentanone, Cyclopentanone] | – | only scarce amount of biofilm could be visualized | 77 | – | – | –
5 | CC1CCC(C(C)C)C(=O)C1 (stereo not drawn) [menthone, 2-isopropyl-5-methylcyclohexane-1-on, reference compound] | – | – | – | – | – | 27% and 48%
